Assay results published in patent US20070243182A1, “Use of Carboxypeptidease G for Combating Antifolate Toxicity” (Protherics Medicines Development Limited, priority 2004, published 2007).
Read-outs that look alike come from different tables or passages of the source.

Experiments:
CPG2 [1] = target: T1, CPG2 (Pseudomonas sp., UniProt P06621); format: biochemical, Pseudomonas sp. strain RS-16
Method: (§1) A stock solution of 10 mM Tomudex in 100 mM Tris-HCl pH7.3 was prepared and used to prepare a series of dilutions from 0-100 μM in 100 mM Tris-HCl pH 7.3. 990 μl of each dilution was placed in a quartz cuvette and pre-warmed to 37° C. 10 μl of enzyme solution was added to initiate the reaction and the progress of the reaction was followed by measuring the rate of change in absorbance at 356 nm.
Measurement of the rate of reaction at a range of substrate concentrations, from 1-100 μM allows the Km and kcat for the enzyme to be determined using appropriate computer software such as “Enzfitter” (Biosoft; Cambridge, UK).
as §1, with “LY309887” for “Tomudex”, “is” for “was”, “pre-warned” for “pre-warmed”, “a suitable wavelength. […] Measurement of the rate of reaction at a range of substrate concentrations, from 1-100 μM allows the Km and kcat for the enzyme to be determined using Enzfitter computer software.” for “356 nm.”
as §1, with “AG2034” for “Tomudex”, “is” for “was”, “a suitable wavelength. […] Measurement of the rate of reaction at a range of substrate concentrations, from 1-100 μM allows the Km and kcat for the enzyme to be determined using Enzfitter computer software.” for “356 nm.”
as §1, with “AG2037” for “Tomudex”, “is” for “was”, “a suitable wavelength. […] Measurement of the rate of reaction at a range of substrate concentrations, from 1-100 μM allows the Km and kcat for the enzyme to be determined using Enzfitter computer software.” for “356 nm.”

CPG2 [2] = target: T1, CPG2; conditions: substrate of CPG2; Sherwood et al (1985); cited from earlier work
[3] = 3-weekly schedule, paediatric population; cited from earlier work
bone marrow cells = conditions: MTX 100 μM, leucovorin calcium 1,000 μM; cited from earlier work
[4] = Rescue of Tomudex toxicity in a patient by administration of CPG2 (with or without thymidine); format: in vivo; conditions: thymidine given together with CPG2 to a patient with toxic plasma levels of Tomudex
Method: A patient who has been administered Tomudex and has toxic plasma levels of Tomudex is administered a dose of 50 Units per kg body weight of CPG2 by intravenous injection over a period of about 5 minutes.
A patient who has been administered Tomudex and has toxic plasma levels of Tomudex is administered a dose of 50 Units per kg body weight of CPG2 by intravenous injection over a period of about 5 minutes and is also administered thymidine.

[5] = example in present tense, no values given
[6] = substrate of CPG2, spectrophotometric assay, 100 mM Tris-HCl pH 7.3, 37° C., 356 nm

T1 sequence (P06621 23-415): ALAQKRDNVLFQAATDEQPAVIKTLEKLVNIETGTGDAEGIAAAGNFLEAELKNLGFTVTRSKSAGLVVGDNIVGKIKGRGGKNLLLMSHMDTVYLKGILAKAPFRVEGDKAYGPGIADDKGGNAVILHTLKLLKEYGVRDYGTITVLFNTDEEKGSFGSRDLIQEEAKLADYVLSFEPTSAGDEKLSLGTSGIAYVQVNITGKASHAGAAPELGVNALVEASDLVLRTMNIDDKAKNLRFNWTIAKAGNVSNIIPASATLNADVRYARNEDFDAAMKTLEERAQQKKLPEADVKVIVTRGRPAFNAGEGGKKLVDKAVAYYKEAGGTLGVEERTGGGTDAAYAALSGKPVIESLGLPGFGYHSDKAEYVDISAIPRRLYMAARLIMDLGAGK

For `Cc1cc(C(=O)N[C@@H](CCC(=O)O)C(=O)O)sc1CC[C@@H]1CNc2nc(N)[nH]c(=O)c2C1` [AG2037], the “substrate of CPG2 (contacted with CPG2 in vitro)” value (shortened to “substrate of CPG2”) (CPG2 [1]; [5]) was “found to be a substrate of CPG2”.
In the case of `CN1c2c(nc(N)[nH]c2=O)NCC1CNc1ccc(C(=O)N[C@@H](CCC(=O)O)C(=O)O)cc1` (some centres unmarked) [5-methyl THF], the Km (CPG2 [2]) is listed as 34 µM.
For `Nc1nc2c(c(=O)[nH]1)N(C=O)C(CNc1ccc(C(=O)N[C@@H](CCC(=O)O)C(=O)O)cc1)CN2` (some centres unmarked) [5-formyl TIE, 5-formyl tetrahydrofolic acid], the Km (CPG2 [2]) is listed as 120 µM.
In the case of `Nc1nc2ncc(CNc3ccc(C(=O)N[C@@H](CCC(=O)O)C(=O)O)cc3)nc2c(=O)[nH]1` [folate], the Km (CPG2 [2]) is given as 4 µM.
In the case of `Cc1nc2ccc(CN(C)c3ccc(C(=O)N[C@@H](CCC(=O)O)C(=O)O)s3)cc2c(=O)[nH]1` [Tomudex], the “substrate of CPG2” value (CPG2 [1]) is reported as “found to a substrate of CPG2”, the Km (CPG2 [1]; [6]) is reported as 7.8 µM and the kcat (CPG2 [1]; [6]) is reported as 24 s⁻¹. For the same molecule, the maximum tolerated dose [3] was 6 mg/m^2.
In the case of `Nc1nc(=O)c2c([nH]1)NCC(CNc1ccc(C(=O)N[C@@H](CCC(=O)[O-])C(=O)[O-])cc1)N2C=O.[Ca+2]` (some centres unmarked) [leucovorin calcium, calcium salt of 5-formyl tetrahydrofolic acid], the “protection of bone marrow cells from MTX toxicity” value (bone marrow cells) is listed as “unable to protect bone marrow cells from toxicity”.
With `Nc1nc2c(c(=O)[nH]1)C[C@@H](CCc1ccc(C(=O)N[C@@H](CCC(=O)O)C(=O)O)s1)CN2` [LY309887] the “substrate of CPG2” value (CPG2 [1]; [5]) was “found to be a substrate of CPG2”.
In the case of `Cc1cn([C@H]2C[C@H](O)[C@@H](CO)O2)c(=O)[nH]c1=O` [thymidine], the “rescue of cellular toxicity associated with Tomudex” value [4] is reported as “rescues the cellular toxicity associated with the Tomudex”.
